Experimental data taken from the NIST ThermoML archive (doi:10.1021/je0256028).
Numbers after ± are expanded uncertainties.

Columns and labels:
[1] = xn = mol fraction of the nth substance listed; settings: 298.15 K, Pendant drop shape
[2] = 298.15 K, Liquid; for mass density: 101.33 kPa, Vibrating tube method; for surface tension liquid-gas: Pendant drop shape

Molecule `Cc1ccccc1C` [1,2-dimethylbenzene] + CC(C)O has a surface tension liquid-gas ([1]; x2 = 0) of 29.6 ± 0.4 mN/m, a surface tension liquid-gas ([1]; x2 = 0.0992) of 28.21 ± 0.38 mN/m and a surface tension liquid-gas ([1]; x2 = 0.1988) of 27.11 ± 0.37 mN/m. For the same molecule, the surface tension liquid-gas ([1]; x2 = 0.3024) was 26.07 ± 0.36 mN/m, the surface tension liquid-gas ([1]; x2 = 0.4004) was 25.3 ± 0.35 mN/m and the surface tension liquid-gas ([1]; x2 = 0.4979) was 24.54 ± 0.35 mN/m. The surface tension liquid-gas ([1]; x2 = 0.5971) was 23.98 ± 0.34 mN/m, the surface tension liquid-gas ([1]; x2 = 0.6988) was 23.15 ± 0.33 mN/m and the surface tension liquid-gas ([1]; x2 = 0.8) was 22.4 ± 0.32 mN/m. For the same molecule, the surface tension liquid-gas ([1]; x2 = 0.8896) was 21.72 ± 0.32 mN/m.
For `CC(C)O` [propan-2-ol], the mass density [2] was 780.85 ± 0.16 kg/m3 and the surface tension liquid-gas [2] was 20.93 ± 0.31 mN/m.
For `Cc1cccc(C)c1` [1,3-dimethylbenzene] + CC(C)O, the surface tension liquid-gas ([1]; x2 = 0) was 28.36 ± 0.39 mN/m, the surface tension liquid-gas ([1]; x2 = 0.1019) was 27.15 ± 0.38 mN/m and the surface tension liquid-gas ([1]; x2 = 0.1933) was 26.23 ± 0.37 mN/m. The surface tension liquid-gas ([1]; x2 = 0.2999) was 25.4 ± 0.36 mN/m, the surface tension liquid-gas ([1]; x2 = 0.4024) was 24.76 ± 0.35 mN/m and the surface tension liquid-gas ([1]; x2 = 0.4983) was 24.18 ± 0.34 mN/m. For the same molecule, the surface tension liquid-gas ([1]; x2 = 0.5957) was 23.56 ± 0.34 mN/m, the surface tension liquid-gas ([1]; x2 = 0.7013) was 22.87 ± 0.33 mN/m and the surface tension liquid-gas ([1]; x2 = 0.7952) was 22.26 ± 0.32 mN/m. For the same molecule, the surface tension liquid-gas ([1]; x2 = 0.8987) was 21.58 ± 0.32 mN/m.
Work on `Cc1ccccc1C` [1,2-dimethylbenzene] yielded a mass density [2] of 875.92 ± 0.11 kg/m3 and a surface tension liquid-gas [2] of 29.6 ± 0.4 mN/m.
For `CC(C)(C)O` [2-methylpropan-2-ol] + Cc1cccc(C)c1, the surface tension liquid-gas ([1]; x1 = 1) was 19.97 ± 0.3 mN/m.
`CC(C)O` [propan-2-ol] + Cc1ccc(C)cc1 showed a surface tension liquid-gas ([1]; x1 = 1) of 20.93 ± 0.31 mN/m.
`Cc1ccc(C)cc1` [1,4-dimethylbenzene] + CC(C)(C)O showed a surface tension liquid-gas ([1]; x2 = 0) of 27.89 ± 0.38 mN/m, a surface tension liquid-gas ([1]; x2 = 0.1004) of 26.69 ± 0.37 mN/m and a surface tension liquid-gas ([1]; x2 = 0.2113) of 25.63 ± 0.36 mN/m. For the same molecule, the surface tension liquid-gas ([1]; x2 = 0.3049) was 24.73 ± 0.35 mN/m, the surface tension liquid-gas ([1]; x2 = 0.4065) was 23.9 ± 0.34 mN/m and the surface tension liquid-gas ([1]; x2 = 0.498) was 23.25 ± 0.33 mN/m. For the same molecule, the surface tension liquid-gas ([1]; x2 = 0.6012) was 22.5 ± 0.33 mN/m, the surface tension liquid-gas ([1]; x2 = 0.698) was 21.82 ± 0.32 mN/m and the surface tension liquid-gas ([1]; x2 = 0.8007) was 21.15 ± 0.31 mN/m. It also gave a surface tension liquid-gas ([1]; x2 = 0.9002) of 20.58 ± 0.31 mN/m.
`CC(C)(C)O` [2-methylpropan-2-ol] + Cc1ccccc1C gave a surface tension liquid-gas ([1]; x1 = 1) of 19.97 ± 0.3 mN/m.
